Assay results taken from patent US9334263B2, “Compositions useful for treating disorders related to kit” (BLUEPRINT MEDICINES CORPORATION, priority 2013, dated 2016).

target: T1, D816V Kit (Homo sapiens, UniProt P10721, D816V); assay: Kit D816V assay at Km (Caliper electrophoretic mobility shift); format: biochemical; conditions: 15 uM ATP, 25 C, 90 minutes
T1 construct: purchased Carna Bioscience 08-156
Protocol: In order to assess the activity of chemical compounds against the relevant kinase of interest, the Caliper LifeSciences electrophoretic mobility shift technology platform is used. Fluorescently labeled substrate peptide is incubated in the presence of kinase and ATP so that a […] proportion of the peptide is phosphorylated. At the end of the reaction, the mix of phosphorylated (product) and non-phosphorylated (substrate) peptides are passed through the microfluidic system of the Caliper EZ Reader 2, under an applied potential difference. The presence of the phosphate group on the product peptide provides a difference in mass and charge between those of the substrate peptide, resulting in a separation of the substrate and product pools in the sample. As the pools pass a LEDS within the instrument, these pools are detected and resolved as separate peaks. The ratio between these peaks therefore reflects the activity of the chemical matter at that concentration in that well, under those conditions.
The reaction was stopped by the addition of 70 ul of Stop buffer (100 mM HEPES pH 7.5, 0.015% Brij 35, 35 mM EDTA and 0.2% of Coating Reagent 3 (Caliper Lifesciences)). The plate was then read on a Caliper EZReader 2 (protocol settings: −1.9 psi, upstream voltage −700, downstream voltage −3000, post sample sip 35 s).

T1 sequence (P10721 26-976 D816V): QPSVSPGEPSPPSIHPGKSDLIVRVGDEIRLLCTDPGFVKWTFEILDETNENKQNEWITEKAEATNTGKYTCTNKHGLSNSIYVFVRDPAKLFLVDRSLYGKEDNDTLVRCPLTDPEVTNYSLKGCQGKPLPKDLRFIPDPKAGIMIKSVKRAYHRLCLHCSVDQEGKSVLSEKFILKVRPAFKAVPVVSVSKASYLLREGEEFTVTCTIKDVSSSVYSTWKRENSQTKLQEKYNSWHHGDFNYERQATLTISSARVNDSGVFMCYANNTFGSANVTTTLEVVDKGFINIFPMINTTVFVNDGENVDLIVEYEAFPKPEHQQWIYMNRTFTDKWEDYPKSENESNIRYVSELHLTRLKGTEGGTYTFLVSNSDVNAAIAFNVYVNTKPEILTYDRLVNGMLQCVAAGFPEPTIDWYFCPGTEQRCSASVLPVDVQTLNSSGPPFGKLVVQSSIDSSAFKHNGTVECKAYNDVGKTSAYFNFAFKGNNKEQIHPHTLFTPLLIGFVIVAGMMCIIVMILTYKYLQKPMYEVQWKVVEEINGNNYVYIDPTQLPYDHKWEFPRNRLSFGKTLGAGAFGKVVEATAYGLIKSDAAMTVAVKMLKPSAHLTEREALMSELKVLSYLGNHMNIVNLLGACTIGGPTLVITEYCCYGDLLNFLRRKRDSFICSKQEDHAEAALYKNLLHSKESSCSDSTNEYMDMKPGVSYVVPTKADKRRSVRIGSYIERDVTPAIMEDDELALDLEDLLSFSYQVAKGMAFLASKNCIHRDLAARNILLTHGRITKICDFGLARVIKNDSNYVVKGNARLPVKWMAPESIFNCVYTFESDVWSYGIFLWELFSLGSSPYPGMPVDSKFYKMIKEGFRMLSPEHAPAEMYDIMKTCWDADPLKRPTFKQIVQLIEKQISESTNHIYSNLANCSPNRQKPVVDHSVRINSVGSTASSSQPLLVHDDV

IC50 [nM] | SMILES
10 to 100 | c1ccc(Cc2cnc(N3CCN(c4ncnc(Nc5ccc6c(c5)CN(C5CC5)CC6)n4)CC3)nc2)cc1 [Compound 145]
< 1 | C[C@H](O)CN1CCc2ccc(Nc3ncnc(N4CCN(c5ncc(Cc6ccccc6)cn5)CC4)n3)cc2C1 [Compound 221]
1.01 to 10 | Cc1c(Nc2ncnc(N3CCN(c4ncc(Sc5ccc(F)cc5)cn4)CC3)n2)cnn1C[C@@H]1CNCCO1 [Compound 273]
< 1 | C[C@](O)(c1ccc(F)cc1)c1cnc(N2CCN(c3ncnc(Nc4cnn(C[C@@H]5CNCCO5)c4)n3)CC2)nc1 [Compound 269]
< 1 | C[C@@H](c1ccccc1)c1cnc(N2CCN(c3ncnc(Nc4ccc(N5CCC[C@@H](O)C5)cc4)n3)CC2)nc1 [Compound 224]
> 100 | c1cnc(N2CCN(c3ncnc(Nc4cnn(C[C@@H]5CNCCO5)c4)n3)CC2)nc1 [Compound 6]
< 1 | OC1(c2ccc(Nc3ncnc(N4CCN(c5ncc(Cc6ccccc6)cn5)CC4)n3)cc2)CCCNC1 (centres unmarked) [Compound 236]
< 1 | Cc1nn(CC(C)(C)O)cc1Nc1ncnc(N2CCN(c3ncc(Sc4ccccc4F)cn3)CC2)n1 [Compound 209]
1.01 to 10 | Fc1ccc(Nc2cnc(N3CCN(c4ncnc(Nc5cnn(C[C@@H]6CNCCO6)c5)n4)CC3)nc2)cc1 [Compound 200]
< 1 | CC(C)(O)[C@@H](O)c1ccc(Nc2ncnc(N3CCN(c4ncc(Cc5ccccc5)cn4)CC3)n2)cc1 [Compound 122]
< 1 | CC1(C(O)c2ccc(Nc3ncnc(N4CCN(c5ncc(Cc6ccccc6)cn5)CC4)n3)cc2)COC1 (centres unmarked) [Compound 172]
1.01 to 10 | Cc1nc(N2CCN(c3ncnc(Nc4ccc5c(c4)CNCC5)n3)CC2)ncc1Cc1ccccc1 [Compound 70]
1.01 to 10 | c1ccc(Cc2cnc(N3CCN(c4ncnc(Nc5ccc(OC6CNC6)cc5)n4)CC3)nc2)cc1 [Compound 77]
1.01 to 10 | c1ccc(Cc2cnc(N3CCN(c4ncnc(Nc5cnn(C[C@@H]6COCCN6)c5)n4)CC3)nc2)cc1 [Compound 126]
1.01 to 10 | C=C(c1ccccc1)c1cnc(N2CCN(c3ncnc(Nc4cnn(C[C@@H]5CNCCO5)c4)n3)CC2)nc1 [Compound 173]
< 1 | Nc1nc(N2CCN(c3ncnc(Nc4ccc(N5CCC[C@@H](O)C5)cc4)n3)CC2)ncc1Cc1ccccc1 [Compound 231]
1.01 to 10 | CC1(O)CCCN(c2ccc(Nc3ncnc(N4CCN(c5ncc(Cc6ccccc6)cn5)CC4)n3)cc2)C1 (centres unmarked) [Compound 225]
1.01 to 10 | c1ccc(OCc2cnc(N3CCN(c4ncnc(Nc5cnn(C[C@@H]6CNCCO6)c5)n4)CC3)nc2)cc1 [Compound 190]
1.01 to 10 | C[C@H](O)CNc1ccc(Nc2ncnc(N3CCN(c4ncc(Sc5ccccc5F)cn4)CC3)n2)cc1 [Compound 205]
1.01 to 10 | O=C1CCc2ccc(Nc3ncnc(N4CCN(c5ncc(Cc6ccccc6)cn5)C(CCO)C4)n3)cc2N1 (centres unmarked) [Compound 213]
< 1 | Cc1nn(C[C@H](C)O)cc1Nc1ncnc(N2CCN(c3ncc(Sc4ccc(F)cc4)cn3)CC2)n1 [Compound 152]
1.01 to 10 | C[C@@]1(O)CCCN(c2ccc(Nc3ncnc(N4CCN(c5ncc(Cc6ccccc6)cn5)CC4)n3)cc2)C1 [Compound 227]

target: T2, Kit D816V (HMC1.2 cells, Kit V560G and D816V) (Homo sapiens, UniProt P10721, D816V/V560G); assay: HMC1.2 autophosphorylation assay (AlphaLISA, phospho-Y719 c-Kit); format: cell-based; conditions: Kit autophosphorylation at tyrosine 719, 90 minutes, read-out: Cellular Activity
T2 construct: endogenous in cells; host or cells: HMC1.2 cells
T2 sequence (P10721 26-976 V560G/D816V): as the sequence (P10721 26-976 D816V) above, with V535G counted along it
Protocol: HMC1.2 Autophosphorylation Assay:
10,000 HMC1.2 cells were incubated in 22 ul culture media (phenol-red free IMDM, no serum) in each well of a 384-well plate and serum starved overnight in a tissue culture incubator (5% CO2, 37° C.). A 10-point dose concentration series of compound (25 uM-95.4 pM) were then added to the cells in a volume of 3.1 ul to each well (0.25% DMSO final concentration). After 90 minutes, 6 ul of 5× AlphaLISA Lysis Buffer (Perkin Elmer) supplemented with a protease and phosphatase inhibitor cocktail (Cell Signaling Technologies) was added to each well and shaken at 450 rpm for 15 minutes at 4° C. 10 ul of phospho-Y719 c-Kit and total c-Kit antibodies (15 nM final concentration, Cell Signaling Technologies) and 50 ug/ml AlphaLISA rabbit acceptor beads (Perkin Elmer) were added to each well and shaken at 300 rpm at room temperature for 2 hours. 10 ul of 100 ug/ml streptavidin donor beads (Perkin Elmer) were added to each well, blocked from light with aluminum adhesive and shaken at 300 rpm at room temperature for 2 hours. Fluorescence signal was obtained on Envision (Perkin Elmer) by AlphaScreen 384 well HTS protocol.
This cell line contains Kit mutated at positions V560G and D816V resulting in constitutive activation of the kinase. The following compounds were tested in an assay to measure direct inhibition of Kit D816V kinase activity by assaying Kit autophosphorylation at tyrosine 719 on the Kit protein.

IC50 [nM] | SMILES
10 to 100 | c1ccc(Cc2cnc(N3CCN(c4ncnc(Nc5ccc6c(c5)CN(C5CC5)CC6)n4)CC3)nc2)cc1 [Compound 145]
< 10 | C[C@H](O)CN1CCc2ccc(Nc3ncnc(N4CCN(c5ncc(Cc6ccccc6)cn5)CC4)n3)cc2C1 [Compound 221]
10 to 100 | Cc1c(Nc2ncnc(N3CCN(c4ncc(Sc5ccc(F)cc5)cn4)CC3)n2)cnn1C[C@@H]1CNCCO1 [Compound 273]
10 to 100 | C[C@](O)(c1ccc(F)cc1)c1cnc(N2CCN(c3ncnc(Nc4cnn(C[C@@H]5CNCCO5)c4)n3)CC2)nc1 [Compound 269]
10 to 100 | C[C@@H](c1ccccc1)c1cnc(N2CCN(c3ncnc(Nc4ccc(N5CCC[C@@H](O)C5)cc4)n3)CC2)nc1 [Compound 224]
> 10000 | c1cnc(N2CCN(c3ncnc(Nc4cnn(C[C@@H]5CNCCO5)c4)n3)CC2)nc1 [Compound 6]
< 10 | OC1(c2ccc(Nc3ncnc(N4CCN(c5ncc(Cc6ccccc6)cn5)CC4)n3)cc2)CCCNC1 (centres unmarked) [Compound 236]
10 to 100 | Cc1nn(CC(C)(C)O)cc1Nc1ncnc(N2CCN(c3ncc(Sc4ccccc4F)cn3)CC2)n1 [Compound 209]
100 to 1000 | Fc1ccc(Nc2cnc(N3CCN(c4ncnc(Nc5cnn(C[C@@H]6CNCCO6)c5)n4)CC3)nc2)cc1 [Compound 200]
10 to 100 | CC(C)(O)[C@@H](O)c1ccc(Nc2ncnc(N3CCN(c4ncc(Cc5ccccc5)cn4)CC3)n2)cc1 [Compound 122]
10 to 100 | CC1(C(O)c2ccc(Nc3ncnc(N4CCN(c5ncc(Cc6ccccc6)cn5)CC4)n3)cc2)COC1 (centres unmarked) [Compound 172]
100 to 1000 | Cc1nc(N2CCN(c3ncnc(Nc4ccc5c(c4)CNCC5)n3)CC2)ncc1Cc1ccccc1 [Compound 70]
10 to 100 | c1ccc(Cc2cnc(N3CCN(c4ncnc(Nc5ccc(OC6CNC6)cc5)n4)CC3)nc2)cc1 [Compound 77]
100 to 1000 | c1ccc(Cc2cnc(N3CCN(c4ncnc(Nc5cnn(C[C@@H]6COCCN6)c5)n4)CC3)nc2)cc1 [Compound 126]
10 to 100 | C=C(c1ccccc1)c1cnc(N2CCN(c3ncnc(Nc4cnn(C[C@@H]5CNCCO5)c4)n3)CC2)nc1 [Compound 173]
10 to 100 | Nc1nc(N2CCN(c3ncnc(Nc4ccc(N5CCC[C@@H](O)C5)cc4)n3)CC2)ncc1Cc1ccccc1 [Compound 231]
10 to 100 | CC1(O)CCCN(c2ccc(Nc3ncnc(N4CCN(c5ncc(Cc6ccccc6)cn5)CC4)n3)cc2)C1 (centres unmarked) [Compound 225]
10 to 100 | c1ccc(OCc2cnc(N3CCN(c4ncnc(Nc5cnn(C[C@@H]6CNCCO6)c5)n4)CC3)nc2)cc1 [Compound 190]
10 to 100 | C[C@H](O)CNc1ccc(Nc2ncnc(N3CCN(c4ncc(Sc5ccccc5F)cn4)CC3)n2)cc1 [Compound 205]
10 to 100 | O=C1CCc2ccc(Nc3ncnc(N4CCN(c5ncc(Cc6ccccc6)cn5)C(CCO)C4)n3)cc2N1 (centres unmarked) [Compound 213]
< 10 | Cc1nn(C[C@H](C)O)cc1Nc1ncnc(N2CCN(c3ncc(Sc4ccc(F)cc4)cn3)CC2)n1 [Compound 152]
10 to 100 | C[C@@]1(O)CCCN(c2ccc(Nc3ncnc(N4CCN(c5ncc(Cc6ccccc6)cn5)CC4)n3)cc2)C1 [Compound 227]
